Data published in patent publication US12337003B2, “Pharmaceutical compositions for combination therapy” (Intercept Pharmaceuticals, Inc., priority 2015, dated 2025).

Assays:
[1] = test system: kidney of a rat model of Type 1 diabetes; conditions: rat model of Type 1 diabetes (Wang 2010); cited from earlier work
[2] = test system: patients with non-cirrhotic, non-alcoholic steatohepatitis; assay: Subanalysis of clinical trial: concomitant statin use and LDL cholesterol; format: in vivo, humans; conditions: patients on statins at baseline; up to Week 72
Method: A subanalysis of the data obtained in Example 9 was performed to assess the effect of statins on low density lipoprotein cholesterol (LDL-C) levels. The aims of these secondary analyses were to determine the effect of OCA versus placebo in the subgroup of patients with more severe NASH and to assess the effects of concomitant statin use on serum LDL cholesterol.
The following calculations were performed for OCA treated subjects in Groups A, B, and C. • Mean and median characteristics listed below will be evaluated at baseline and at Week 72. • Laboratory values: LDL-C, high density lipoprotein cholesterol (HDL-C), alanine and aspartate aminotransferase, gamma glutamyl transferase • Age • Gender: percentage male, percentage female • Percentage diabetic • Histology: steatosis, ballooning, inflammation, fibrosis • Mean and median percentage change at Week 72 from baseline of the above characteristics will be evaluated. Results

[3] = test system: APOE*3Leiden.CETP transgenic mice on high fat diet; assay: Diet induced NASH in APOE*3Leiden.CETP mice, hepatic inflammation score; format: in vivo
Method: (§1) This experiment was performed to evaluate the effects of OCA and fenofibrate, alone or in combination, on the development of diet induced NASH and liver fibrosis in APOE*3Leiden.CETP transgenic mice. Hepatic gene expression profiling and subsequent pathway analysis were performed to determine whether the combination regulates novel genes not regulated by either monotherapy treatment, and/or more strongly regulates genes also impacted by the monotherapy.
Male APOE*3Leiden.CETP transgenic mice (9-21 weeks old) were obtained and housed 2-5 mice per cage. The mice were fed a high fat diet containing 24% lard and 1% (w/w) cholesterol. The run in period was 15 weeks on the high fat diet. At week 16, mice were matched based on age, body weight, plasma cholesterol and triglycerides after 4 h fasting.
• Mice (n=15) were fed a high fat diet during the run in weeks 0 to 14. Group 2: HFC control group • Mice (n=15) were fed a high fat diet from weeks 0 to 24. Group 3: HFC+OCA • Mice (n=15) were fed a high fat diet supplemented with OCA at a dose of 10 mg/kg once daily from week 16 to 24. Group 4: HFC+low dose fenofibrate • Mice (n=15) were fed a high fat diet supplemented with fenofibrate at a dose of 10 mg/kg once daily from week 16 to 24. Group 5: HFC+high dose fenofibrate • Mice (n=15) were fed a high fat diet supplemented with fenofibrate at a dose of 40 mg/kg once daily from week 16 to 24. Group 6: HFC+OCA+low dose fenofibrate • Mice (n=15) were fed a high fat diet supplemented with OCA at a dose of 10 mg/kg once daily and fenofibrate at a dose of 10 mg/kg once daily from week 16 to 24. Group 7: HFC+OCA+high dose fenofibrate • Mice (n=15) were fed a high fat diet supplemented with OCA at a dose of 10 mg/kg once daily and fenofibrate at a dose of 40 mg/kg once daily from week 16 to 24. Group 8: Chow control group • Mice (n=8) were feed chow from week 0 to 24. Study Design
(§2) Mice were fed a high fat chow (HFC) diet for […]. After 15 weeks on the HFC diet, HFC mice were matched into 7 groups based on age, body weight, plasma cholesterol and triglycerides after 4 h fasting. Mice were treated with of OCA and fenofibrate, alone or in combination beginning at week 15 and sacrificed at week 25 in an unfasted state. One week before sacrifice, mice were labeled with D20, by i.p. injection of a bolus of D20 and subsequent addition of 4% D20 to the drinking water. Plasma (EDTA) was obtained by heart puncture and stored at −70° C. The liver was weighed and 4 pieces of liver were isolated: 1 piece (medial lobe) was fixed in 10% formalin (for NASH and fibrosis histology) and 3 pieces (sinister lobe) were snap-frozen in liquid N2 and stored individually at −70° C.
Inflammation is a key feature of NASH. Inflammation was categorized according to the procedure by Liang et al., PlosOne 2014 Dec. 9(12) and scored by quantitatively analyzing the number of inflammatory cells aggregates. In particular, the level of inflammation was evaluated by counting the number of inflammatory foci per field using a 100× magnification (view size of 3.1 mm2; average of five different fields).

[4] = test system: rat aortic smooth muscle cell; conditions: Li 2007; cited from earlier work
[5] = test system: leukocyte extravasation signaling; assay: Hepatic gene expression profiling (RNA sequencing, pathway analysis) in APOE*3Leiden.CETP mice; format: in vivo
Method: as §1, §2
Nucleic acid extraction was performed as described previously in detail (Verschuren et al., 2014). Briefly, total RNA was extracted from individual liver samples using glass beads and RNAzol (Campro Scientific, Veenendaal, The Netherlands). RNA concentration and quality was determined using the Fragment Analyzer (Advanced Analytical Technologies, USA) and the RNA 6000 Nano Lab-on-a-Chip kit and a Bioanalyzer 2100 (Agilent Technologies, Amstelveen, The Netherlands). All samples met the quality requirements and were used in the RNA sequencing procedure.
The NEBNext Ultra Directional RNA library Prep Kit for Illumina was used to process the samples. The sample preparation was performed according to the protocol “NEBNext Ultra Directional RNA Library Prep Kit for Illumina” (NEB #E7420S/L). Briefly, mRNA was isolated from total RNA using oligo-dT magnetic beads. After fragmentation of the mRNA, a cDNA synthesis was performed. This was used for ligation of sequencing adapters and PCR amplification of the resulting product. The quality and yield after sample preparation was measured with the Fragment Analyzer (Advanced Analytical Technologies, USA). The size of the resulting products was consistent with the expected size distribution (a broad peak between 300-500 bp).
Clustering and DNA sequencing using the Illumina […] was performed according manufacturer's protocols. Data was generated using single-end read sequencing protocol obtaining approx. 15 million reads per sample and 75 bp per read. Image analysis, base calling, and quality check was performed with the Illumina data analysis pipeline RTA v2.4.11 to generate the raw data (*.fastq-files).
The reads were mapped to the reference sequence Mus musculus GRCm38.p3 using a short read aligner based on Burrows-Wheeler Transform. The default mismatch rate of 2% (3 mismatches in a read of 150 bases) was used. Based on the mapped read locations in the alignment files (*.bam-files) the frequency of how often a read was mapped on a transcript was determined. The counts were saved to count-files, which served as input for downstream mRNA-seq differential expression analysis. The read counts were loaded into the DESeq package, a statistical package within the R platform. […]

CC[C@H]1[C@@H](O)[C@@H]2[C@H](CC[C@]3(C)[C@@H]([C@H](C)CCC(=O)O)CC[C@@H]23)[C@@]2(C)CC[C@@H](O)C[C@@H]12 [OCA, 3α,7α-dihydroxy-6α-ethyl-5β-cholan-24-oic acid]
inflammatory infiltrates in kidney [1]: inhibition of inflammatory infiltrates
LDL cholesterol during OCA treatment [2]: increased
Inflammation (# of inflammatory cell foci) ([3]; OCA 10 mg/kg and/or low dose fenofibrate 10 mg/kg, in high fat diet): 29.1 ± 22.7
effect on number of inflammatory cell foci ([3]; after 10 weeks, OCA 10 mg/kg and/or fenofibrate 10 mg/kg, relative to vehicle control): neither OCA (10 mg/kg) nor fenofibrate (10 mg/kg) reduced
pharmacologically-induced rat aortic smooth muscle cell migration [4]: abolished
production of iNOS or COX-2 induced by IL-1β [4]: inhibited
number of uniquely regulated genes ([5]; Venn diagram, OCA 10 mg/kg, fenofibrate 10 mg/kg, combination): 109
enrichment analysis of canonical (inflammatory) pathways ([5]; liver mRNA, OCA 10 mg/kg and/or low dose fenofibrate vs HFC): regulated several inflammatory processes
regulation of genes of leukocyte extravasation signaling (leukocyte and endothelial cells) ([5]; liver mRNA, OCA and/or low dose fenofibrate, relative to vehicle group): downregulates numerous genes
